The values below come from article PMC6100468 (2018).

The subject of assay [1] is Fc-kit1T (DNA, G4) AGGGAGGGCGCTGGGAGGAGGG
Put plainly: microscale thermophoresis. Conditions: 100 mM K+; 10 mM Tris-HCl pH 7.4. A general note: MST reads how a fluorescent partner responds to local heating, with and without ligand.

Assay [2] has as its system F21T (DNA, G4) GGGTTAGGGTTAGGGTTAGGG
Put plainly: FRET melting. Conditions: 60 mM K+; 0.2 μM DNA, 1.0 μM compound (methods text: 2 μM, 100 mM LiCl); cacodylate pH 7.4.

Assay [3] has as its system F10T (DNA, hairpin, hexaethylene glycol (HEG) linker between nucleotides 10 and 11) TATAGCTATATATAGCTATA
Put plainly: FRET melting. Conditions: 60 mM K+; 0.2 μM DNA, 1.0 μM compound (methods text: 2 μM, 100 mM LiCl); cacodylate pH 7.4.

Assay [4] relates to FPu18T (DNA, G4) AGGGTGGGGAGGGTGGGG
Nature of the assay: FRET melting. Conditions: 60 mM K+; 0.2 μM DNA, 1.0 μM compound (methods text: 2 μM, 100 mM LiCl); cacodylate pH 7.4.

For assay [5], the system named is Fc-kit1T (DNA, G4) AGGGAGGGCGCTGGGAGGAGGG
Nature of the assay: FRET melting. Conditions: 60 mM K+; 0.2 μM DNA, 1.0 μM compound (methods text: 2 μM, 100 mM LiCl); cacodylate pH 7.4.

As a reminder, the Kd is the constant that tells how readily two partners part at equilibrium. Read a high Kd as lower affinity. With `COc1cc2c(cc1OC)-c1cc3ccc(OC)c(OCC(=O)N[C@@H](Cc4ccccc4)C(=O)N[C@@H](CCCCN)C(=O)N[C@@H](CCCN=C(N)N)C(N)=O)c3c[n+]1CC2`, in assay [1], the Kd is 6.60 ± 0.472 µM.

As usually defined, the ΔTm is the shift of the melting midpoint relative to a reference. With `COc1cc2c(cc1OC)-c1cc3ccc(OC)c(OCC(=O)N[C@@H](Cc4ccccc4)C(=O)N[C@@H](CCCNC(=N)N)C(N)=O)c3c[n+]1CC2`, the ΔTm in assay [2] was found to be 11.0 ± 0.1 °C; in assay [3] it was 0.8 ± 0.4 °C; in assay [4], 23.8 ± 0.6 °C; in assay [5], 21.7 ± 0.8 °C. Besides, in assay [1], the Kd turned out to be 1.41 ± 0.09 µM.

As to `COc1cc2c(cc1OC)-c1cc3ccc(OC)c(OCC(=O)N[C@@H](CCCNC(=N)N)C(=O)N[C@@H](CCCNC(=N)N)C(N)=O)c3c[n+]1CC2`, the values for the ΔTm in assay [2] and in assay [4] were 10.6 ± 0.2 °C and 19.6 ± 0.9 °C, respectively. The Kd in assay [1] came to 1.47 ± 0.12 µM.

Consider `COc1cc2c(cc1OC)-c1cc3ccc(OC)c(OC)c3c[n+]1CC2`, for which the ΔTm in assay [2] was determined as 1.8 ± 0.2 °C; in assay [4], 11.2 ± 0.1 °C. The Kd in assay [1] came to 3.25 ± 0.32 µM.

Take `COc1cc2c(cc1OC)-c1cc3ccc(OC)c(OCC(=O)N[C@@H](Cc4ccccc4)C(=O)N[C@@H](Cc4cnc[nH]4)C(=O)N[C@@H](CCCNC(=N)N)C(N)=O)c3c[n+]1CC2`: the ΔTm in assay [3] was determined as 0.0 ± 1.0 °C. For the same compound, the Kd in assay [1] was 9.68 ± 0.57 µM.

On to `COc1cc2c(cc1OC)-c1cc3ccc(OC)c(OCC(=O)N[C@@H](Cc4ccccc4)C(=O)NCC(=O)N[C@@H](CCCCN)C(N)=O)c3c[n+]1CC2`, for which the shift in melting temperature (ΔTm) in assay [4] is 5.0 ± 1.0 °C; in assay [5] it was 6.1 ± 0.9 °C. This compound also came in with a Kd in assay [1] of 11.10 ± 0.51 µM.

In the case of `COc1cc2c(cc1OC)-c1cc3ccc(OC)c(OCC(=O)N[C@@H](CCCCN)C(=O)N[C@@H](CCCNC(=N)N)C(N)=O)c3c[n+]1CC2`, the Kd in assay [1] was 2.65 ± 0.33 µM.

In the case of `COc1cc2c(cc1OC)-c1cc3ccc(OC)c(OCC(=O)N[C@@H](CCCCN)C(=O)N[C@@H](Cc4ccccc4)C(=O)N[C@@H](CCCNC(=N)N)C(N)=O)c3c[n+]1CC2`, in assay [2], the ΔTm was 0.0 ± 1.2 °C. In addition, the Kd in assay [1] is 8.00 ± 0.89 µM.
